The target in assay [1] is T1, ASCT2 mediated glutamine uptake in C8161 melanoma cells (Homo sapiens, UniProt Q15758).
T1 construct: endogenous in cells; host or cells: C8161 human melanoma cell line
T1 sequence (Q15758 1-541): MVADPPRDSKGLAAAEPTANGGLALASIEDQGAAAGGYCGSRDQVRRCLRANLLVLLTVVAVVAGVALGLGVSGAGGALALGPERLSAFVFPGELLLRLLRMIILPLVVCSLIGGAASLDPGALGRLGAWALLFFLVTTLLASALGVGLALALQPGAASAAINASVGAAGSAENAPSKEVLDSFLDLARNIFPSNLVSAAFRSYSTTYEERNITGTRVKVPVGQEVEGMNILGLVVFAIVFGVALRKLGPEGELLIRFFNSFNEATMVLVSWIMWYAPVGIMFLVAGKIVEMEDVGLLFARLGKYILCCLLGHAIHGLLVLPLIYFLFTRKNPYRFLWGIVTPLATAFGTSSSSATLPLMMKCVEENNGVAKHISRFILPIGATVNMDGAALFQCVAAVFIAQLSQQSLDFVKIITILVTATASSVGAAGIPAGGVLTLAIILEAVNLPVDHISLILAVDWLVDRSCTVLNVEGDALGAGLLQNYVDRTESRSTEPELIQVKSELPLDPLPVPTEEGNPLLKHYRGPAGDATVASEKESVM
Briefly: [3H]-L-glutamine uptake assay in C8161 cells. In kind it is cell-based. Conditions: 15 min, 37°C, n = 3. As for the experimental part: We have previously shown that ASCT2 mediates glutamine uptake in C8161 human melanoma cells, and that blocking ASCT2 activity inhibits cell growth and viability (Methods). […] In the presence these compounds, [^3H]-L-glutamine uptake was decreased in a dose-dependent manner in C8161 cells, in agreement with their elicitation of current as activators and potential substrates (Fig 8A–8C).
(§1) Human melanoma cell line C8161 culture was performed as previously described. Media used was DMEM/F12 medium (Life Technologies) containing 5% (v/v) fetal bovine serum (FBS), penicillin-streptomycin solution (Sigma-Aldrich). Cells were maintained at 37°C in a fully humidified atmosphere containing 5% CO2. Inhibitors (chloroalanine, AOC and γ-FBP) were resuspended in H2O, with control cells treated with the appropriate concentrations of vehicle alone.
C8161 cells (1 × 10^5/well) were incubated with [^3H]-L-glutamine (400 nM; PerkinElmer) in MEM media (Life Technologies) for 15 min at 37°C in the presence or absence of each inhibitor. Cells were collected and transferred to filter paper using a 96-well plate harvester (Wallac PerkinElmer), dried, exposed to scintillation fluid and counts measured using a liquid scintillation counter (PerkinElmer).

For assay [2], the system named is C8161 human melanoma cells. Briefly: MTT cell viability assay. In kind it is cell-based. Conditions: 5 mM. The protocol:
(§2) Glutamine is a conditionally essential amino acid required for cancer cell growth, being used as fuel source for the TCA cycle, and a carbon and nitrogen source for macromolecule production. We therefore examined cell viability in the presence of chloroalanine (5 mM), AOC (5 mM) and γ-FBP (5 mM) using an MTT assay in C8161 cells (Methods).
as §1
MTT (3–(4,5–dimethylthiazol–2–yl)–2,5–diphenyl […] bromide; Millipore) cell viability assay was performed as previously described. Briefly, C8161 cells (1 × 10^4/well) were seeded in a flat-bottomed 96–well plate, incubated overnight in media, prior to culture with or without each inhibitor. MTT solution (10 μL) was added to each well for 4 h, prior to addition of 100 μL of isopropanol/HCl solution. Solution was mixed thoroughly and plates immediately read at 570 nm/630 nm in a PolarStar plate reader (BMG). Results were plotted as percentages of the absorbance observed in control wells.

In assay [3] the test system is C8161 human melanoma cells. Briefly: Annexin V/propidium iodide apoptosis assay by flow cytometry. In kind it is cell-based. Conditions: 5 mM, 48 hours. The protocol:
as §2
Cells (5 × 10^5 per well) were seeded in 24 well plates, allowed to adhere overnight, and then incubated in the presence of 5 mM chloroalanine, AOC or γ-FBP for 48 hours. Cells were detached using Tryple and resuspended in 300 μL of binding buffer (HEPES-buffered PBS supplemented with 2.5 mM calcium chloride) with Annexin V-APC (BD) and incubated for 15 min in the dark at room temperature. Propidium iodide solution (5 μg/mL) was added, and the cells were analyzed using the BD LSRFortessa and FlowJo software.

The subject of assay [4] is ASCT2 protein levels in C8161 cells. Briefly: Western blotting of ASCT2 protein levels. The format is cell-based, human. Particulars: 5 mM, 48 hours. The protocol: To ensure these inhibitory effects were not due to changes in ASCT2 protein levels, we examined ASCT2 protein levels by Western blotting 48 hours after incubation with chloroalanine (5 mM), AOC (5 mM) or γ-FBP (5 mM) (Fig 8J). […] For example, γ-FBP is an inhibitor that deprives the cancer cells from nutrients and the activator Chloroalanine can potentially be further developed as a cytotoxic ligand.
Cells (5 × 10^5 per well) were seeded in 24 well plates, allowed to adhere overnight, and then incubated in the presence of 5 mM chloroalanine, AOC or γ-FBP for 48 hours. Cells were detached using Tryple and lysed in lysis buffer (50 μL; 20 mM Tris-HCl, 150 mM NaCl, 1% Triton X-100, 0.5% Na deoxycholate, 0.1% SDS) with protease inhibitor Cocktail III (Bioprocessing Biochemical, California). Protein was measured using micro-BCA method (Pierce) and loaded onto a 4–12% gel (Life Technologies), electrophoresed, and transferred to PVDF membrane. The membrane was blocked with 2.5% (w/v) BSA in PBS-Tween20, and incubated with primary (ASCT2, Cell Signaling; GAPDH, Abcam) and secondary antibodies. Secondary HRP-labeled antibodies (Millipore) were detected using chemiluminescence reagents (Pierce) on a Kodak imager (Kodak).

The compound `NC1(C(=O)O)COC1` came in with an IC50 in assay [1] of 10 to 15 mM. The “Cell viability (MTT)” value in assay [2] is “significantly inhibited cell viability”. Besides, the “Apoptosis (early Annexin V+PI-, late Annexin V+PI+)” value (“Apoptosis” below) in assay [3] is reported as “neither AOC nor γ-FBP led to a significant increase”. The ASCT2 protein levels result in assay [4] is given as “no change”.

Consider `NC(CCl)C(=O)O` (stereo not drawn) [Chloroalanine], for which the IC50 in assay [1] is 9.2 mM. Further, the “Cell viability (MTT)” value in assay [2] is on record as “significantly inhibited cell viability”. In assay [3], the “Apoptosis” value was “significantly increased apoptosis”. Besides, the ASCT2 protein levels result in assay [4] is listed as “reduced the levels of ASCT2 protein”.

The compound `O=C(O)C1CC(Cc2ccccc2F)CN1` (stereo not drawn) [γ-FBP] displayed an IC50 in assay [1] of 10 to 15 mM. The “Cell viability (MTT)” value in assay [2] is on record as “significantly inhibited cell viability”. Also, the “Apoptosis” value in assay [3] was “neither AOC nor γ-FBP led to a significant increase”. The ASCT2 protein levels result in assay [4] is given as “no change”.

These data come from article PMC4596572, “Ligand Discovery for the Alanine-Serine-Cysteine Transporter (ASCT2, SLC1A5) from Homology Modeling and Virtual Screening” (PLoS Computational Biology, 2015).
